Data set [1] is described as follows: Peptide hydrogel formation, vial-inverting method. Type of data set: physicochemical. Set-up: key to EXP / GELATION: 0: no hydrogel; 1: hydrogel. Conditions: for State: ultrasonication, standing 48 h; for State / GELATION / hydrogel formation (in words): vial-inverting method; for Concentration: concentration at which the state was recorded: lowest of 30, 60, 90, 120 mM that gave a gel, 120 mM for non-gelating peptides; for GELATION: 1 = hydrogel, 0 = no hydrogel; for hydrogel formation (in words): representative hydrogels pH between 7.0 to 7.5. Summed up: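 Gelation judged by vial inversion, a non-flowing self-supporting sample counting as hydrogel, after 48 h standing. Peptide in water at 30 mM first, escalating to 60, 90 and 120 mM if no gel; pH set to 6.5–8.5 by stepwise 1 N NaOH, each step sonicated briefly.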

A short description of data set [2]: Transmission electron microscope (negative staining) of peptide assemblies. The note with it: for Morphology: TEM, negative staining with uranyl acetate, 120 kV; for morphology by TEM (in words): aqueous solution or hydrogel, negative staining.
Protocol: We used the negative staining technique to observe the morphologies formed by peptides. A micropipette was used to load 10 μL of sample solution to a carbon-coated copper grid, and we used a piece of filter paper to remove the excess solution. After rinsing the grid with the deionized water, we used uranyl acetate to stain the sample for 1 minute and then rinsed the grid with deionized water again.
Where [3] appears, read: 120 mM peptide (highest tested) in ultrapure water, pH 6.5-8.5 (1 N NaOH), precipitate, sol, suspension = no gel.
[4] abbreviates: 60 mM peptide in ultrapure water, pH 6.5-8.5 (1 N NaOH), no gel at 30 mM.
[5] abbreviates: 30 mM peptide in ultrapure water, pH adjusted to 6.5-8.5 with 1 N NaOH, concentration raised 30/60/90/120 mM until gelation.

Where a SMILES comes first, the peptide text is derived from it.

As for `CC(C)[C@H](N)C(=O)N[C@@H](CO)C(=O)N[C@@H](Cc1c[nH]c2ccccc12)C(=O)N[C@@H](Cc1ccc(O)cc1)C(=O)O` [VSWY] (H-VSWY-OH), the State entry in data set [1] (setting [3]) is given as “precipitate”. Further, the “Concentration” value in data set [1] turned out to be 120000 µM. In addition, the GELATION in data set [1] (peptide concentration 120 mM) is 0. Moreover, the Morphology entry in data set [2] (line of the table gives 120 mM) is recorded as “particle”.
Take `CC(C)[C@H](N)C(=O)N[C@H](C(=O)N[C@H](C(=O)N[C@H](C(=O)O)C(C)C)C(C)C)C(C)C` [VVVV] (H-VVVV-OH): the State result in data set [1] (setting [4]) is “gel”. Further, in data set [1], the “Concentration” value was 60000 µM. The compound also showed a GELATION in data set [1] (peptide concentration 60 mM) of 1. In data set [2] (line of the table gives 60 mM), the Morphology entry is “sheet”.
`CC[C@H](C)[C@H](NC(=O)[C@H](Cc1c[nH]c2ccccc12)NC(=O)[C@@H](N)C(C)C)C(=O)N[C@H](C(=O)O)[C@@H](C)O` [VWIT] (H-VWIT-OH): the State result in data set [1] (setting [3]) is on record as “precipitate”. The “Concentration” value in data set [1] stood at 120000 µM. Besides, the GELATION in data set [1] (peptide concentration 120 mM) came out at 0. For the same compound, the Morphology result in data set [2] (line of the table gives 120 mM) is reported as “aggregates”.
For `CC(C)[C@H](N)C(=O)N[C@@H](Cc1ccc(O)cc1)C(=O)N[C@H](C(=O)N[C@@H](Cc1ccccc1)C(=O)O)[C@@H](C)O` [VYTF] (H-VYTF-OH) the same measures were “sol”, 120000 µM, 0 and “particle”.
`C[C@H](NC(=O)[C@@H](N)Cc1c[nH]c2ccccc12)C(=O)N[C@@H](Cc1ccccc1)C(=O)N[C@@H](Cc1ccc(O)cc1)C(=O)O` [WAFY] (H-WAFY-OH): in data set [1] (setting [4]), the State entry is “gel”. The “Concentration” value in data set [1] was determined as 60000 µM. In data set [1] (peptide concentration 60 mM), this compound yielded a GELATION of 1. For the same compound, the Morphology result in data set [2] (line of the table gives 60 mM) was “fibre”.
Take `CC(C)C[C@H](NC(=O)[C@H](C)NC(=O)[C@@H](N)Cc1c[nH]c2ccccc12)C(=O)N[C@@H](Cc1c[nH]c2ccccc12)C(=O)O` [WALW] (H-WALW-OH): in data set [1] (setting [5]), the State result is reported as “gel”. The “Concentration” value in data set [1] worked out at 30000 µM. The same compound came in with a GELATION in data set [1] (peptide concentration 120 mM) of 1. Besides, the Morphology result in data set [2] (line of the table gives 30 mM) is recorded as “fibre”.
Turning to `CC(C)[C@H](NC(=O)[C@@H](NC(=O)[C@H](C)NC(=O)[C@@H](N)Cc1c[nH]c2ccccc12)C(C)C)C(=O)O` [WAVV] (H-WAVV-OH), the State entry in data set [1] (setting [4]) was “gel”. The “Concentration” value in data set [1] came out at 60000 µM. Also, in data set [1] (peptide concentration 60 mM), the GELATION came out at 1. Also, the Morphology result in data set [2] (line of the table gives 60 mM) is “fibre”.
`C[C@H](NC(=O)[C@@H](N)Cc1c[nH]c2ccccc12)C(=O)N[C@@H](Cc1ccc(O)cc1)C(=O)N[C@@H](Cc1ccccc1)C(=O)O` [WAYF] (H-WAYF-OH): the State result in data set [1] (setting [5]) is on record as “gel”. Moreover, the “Concentration” value in data set [1] stood at 30000 µM. For the same compound, the GELATION in data set [1] (peptide concentration 30 mM) worked out at 1. For the same compound, in data set [2] (line of the table gives 30 mM), the Morphology entry was “fibre”.
For `N[C@@H](Cc1c[nH]c2ccccc12)C(=O)N[C@@H](CCC(=O)O)C(=O)N[C@@H](Cc1ccccc1)C(=O)N[C@@H](Cc1ccccc1)C(=O)O` [WEFF] (H-WEFF-OH), the State result in data set [1] (setting [5]) was “gel”. Also, in data set [1], the “Concentration” value amounted to 30000 µM and the “hydrogel formation (in words)” value is “hydrogels”. In data set [1] (peptide concentration 30 mM), this compound came in with a GELATION of 1. The Morphology result in data set [2] (line of the table gives 30 mM) is “fibre”. Moreover, the “morphology by TEM (in words)” value in data set [2] was “entangled nanofibers”.
With `N[C@@H](Cc1c[nH]c2ccccc12)C(=O)N[C@@H](Cc1ccccc1)C(=O)N[C@@H](Cc1c[nH]cn1)C(=O)N1CCC[C@H]1C(=O)O` [WFHP] (H-WFHP-OH), the State result in data set [1] (setting [3]) is “sol”. In addition, in data set [1], the “Concentration” value was found to be 120000 µM. Besides, in data set [1] (peptide concentration 120 mM), the GELATION is 0. Further, in data set [2] (line of the table gives 120 mM), the Morphology result is “aggregates”.
Turning to `CSCC[C@H](NC(=O)[C@H](CCSC)NC(=O)[C@H](Cc1ccccc1)NC(=O)[C@@H](N)Cc1c[nH]c2ccccc12)C(=O)O` [WFMM] (H-WFMM-OH), the State entry in data set [1] (setting [5]) is “gel”. Also, the “Concentration” value in data set [1] is 30000 µM. Also, the GELATION in data set [1] (peptide concentration 30 mM) came to 1. Moreover, the Morphology entry in data set [2] (line of the table gives 30 mM) is given as “fibre”.
For `CC[C@H](C)[C@H](NC(=O)[C@@H](NC(=O)[C@@H](N)Cc1c[nH]c2ccccc12)[C@@H](C)CC)C(=O)N[C@@H](Cc1ccccc1)C(=O)O` [WIIF] (H-WIIF-OH) the same measures were “gel”, 30000 µM, 1 and “fibre”.
`NCCCC[C@H](NC(=O)[C@@H](N)Cc1c[nH]c2ccccc12)C(=O)N[C@@H](Cc1ccccc1)C(=O)N[C@@H](Cc1ccccc1)C(=O)O` [WKFF] (H-WKFF-OH): the State entry in data set [1] (setting [4]) is listed as “gel”. In data set [1], the “Concentration” value is 60000 µM and the “hydrogel formation (in words)” value is reported as “hydrogels”. In data set [1] (peptide concentration 60 mM), this compound came in with a GELATION of 1. In addition, the “morphology by TEM (in words)” value in data set [2] is listed as “entangled nanofibers”.
Turning to `CC(C)C[C@H](NC(=O)[C@@H](N)Cc1c[nH]c2ccccc12)C(=O)N[C@H](C(=O)N[C@@H](Cc1c[nH]c2ccccc12)C(=O)O)C(C)C` [WLVW] (H-WLVW-OH), in data set [1] (90 mM peptide in ultrapure water, pH 6.5-8.5 (1 N NaOH), no gel at lower concentrations), the State result is reported as “gel”. For the same compound, the “Concentration” value in data set [1] stood at 90000 µM. The compound also displayed a GELATION in data set [1] (peptide concentration 90 mM) of 1. Further, the Morphology result in data set [2] (line of the table gives 90 mM) is listed as “fibre”.
For `N[C@@H](Cc1c[nH]c2ccccc12)C(=O)N1CCC[C@H]1C(=O)N[C@@H](Cc1ccc(O)cc1)C(=O)N[C@@H](Cc1ccc(O)cc1)C(=O)O` [WPYY] (H-WPYY-OH), the State entry in data set [1] (setting [3]) is “precipitate”. For the same compound, in data set [1], the “Concentration” value amounted to 120000 µM and the “hydrogel formation (in words)” value is on record as “cannot”. The same compound gave a GELATION in data set [1] (peptide concentration 120 mM) of 0. Also, in data set [2] (line of the table gives 120 mM), the Morphology entry was “sphere”.
As to `CC[C@H](C)[C@H](NC(=O)[C@@H](NC(=O)[C@@H](N)Cc1c[nH]c2ccccc12)[C@@H](C)O)C(=O)N[C@@H](Cc1ccccc1)C(=O)O` [WTIF] (H-WTIF-OH), the State result in data set [1] (setting [5]) is reported as “gel”. Further, in data set [1], the “Concentration” value stood at 30000 µM and the “hydrogel formation (in words)” value is given as “hydrogels”. The compound further yielded a GELATION in data set [1] (peptide concentration 30 mM) of 1. The Morphology result in data set [2] (line of the table gives 30 mM) is listed as “fibre”. In addition, the “morphology by TEM (in words)” value in data set [2] is “entangled nanofibers”.
As to `CC[C@H](C)[C@H](NC(=O)[C@H](Cc1ccccc1)NC(=O)[C@@H](NC(=O)[C@@H](N)Cc1c[nH]c2ccccc12)C(C)C)C(=O)O` [WVFI] (H-WVFI-OH), the State entry in data set [1] (setting [3]) was “suspension”. In addition, the “Concentration” value in data set [1] came to 120000 µM. Besides, the GELATION in data set [1] (peptide concentration 120 mM) is recorded as 0. Also, the Morphology entry in data set [2] (line of the table gives 120 mM) is “aggregates”.
As to `CC(C)[C@H](NC(=O)[C@@H](N)Cc1c[nH]c2ccccc12)C(=O)N[C@@H](Cc1ccccc1)C(=O)N[C@@H](Cc1ccc(O)cc1)C(=O)O` [WVFY] (H-WVFY-OH), the State entry in data set [1] (setting [5]) is given as “gel”. In data set [1], the “Concentration” value stood at 30000 µM and the “hydrogel formation (in words)” value is “hydrogels”. Further, the GELATION in data set [1] (peptide concentration 30 mM) stood at 1. In addition, the Morphology entry in data set [2] (line of the table gives 30 mM) is given as “sheet”. In data set [2], the “morphology by TEM (in words)” value is “interlaced nanosheets”.
Consider `CC[C@H](C)[C@H](NC(=O)[C@@H](NC(=O)[C@@H](NC(=O)[C@@H](N)Cc1c[nH]c2ccccc12)C(C)C)[C@@H](C)CC)C(=O)O` [WVII] (H-WVII-OH), for which, in data set [1] (setting [4]), the State result is on record as “gel”. Also, in data set [1], the “Concentration” value was 60000 µM and the “hydrogel formation (in words)” value is recorded as “can form hydrogel”. The compound also gave a GELATION in data set [1] (peptide concentration 60 mM) of 1. The Morphology entry in data set [2] (line of the table gives 60 mM) is “fibre”.
In the case of `N[C@@H](Cc1c[nH]c2ccccc12)C(=O)N[C@@H](Cc1c[nH]c2ccccc12)C(=O)N[C@@H](CS)C(=O)N1CCC[C@H]1C(=O)O` [WWCP] (H-WWCP-OH), in data set [1] (setting [3]), the State result is given as “precipitate”. In data set [1], the “Concentration” value stood at 120000 µM and the “hydrogel formation (in words)” value is reported as “cannot”. Moreover, in data set [1] (peptide concentration 120 mM), the GELATION was determined as 0. For the same compound, the Morphology result in data set [2] (line of the table gives 120 mM) is “aggregates”.
As to `CSCC[C@H](NC(=O)[C@H](Cc1c[nH]c2ccccc12)NC(=O)[C@@H](N)Cc1c[nH]c2ccccc12)C(=O)N[C@@H](Cc1ccccc1)C(=O)O` [WWMF] (H-WWMF-OH), the State result in data set [1] (setting [3]) is “gel”. Besides, in data set [1], the “Concentration” value came out at 120000 µM. For the same compound, the GELATION in data set [1] (peptide concentration 120 mM) turned out to be 1. Besides, the Morphology entry in data set [2] (line of the table gives 120 mM) is reported as “rod”.
For `N[C@@H](Cc1c[nH]c2ccccc12)C(=O)N[C@@H](Cc1c[nH]c2ccccc12)C(=O)N[C@@H](Cc1c[nH]c2ccccc12)C(=O)N[C@@H](Cc1c[nH]c2ccccc12)C(=O)O` [WWWW] (H-WWWW-OH) the same measures were “suspension”, 120000 µM, 0 and “sphere”.
Take `N[C@@H](Cc1c[nH]c2ccccc12)C(=O)N[C@@H](Cc1ccc(O)cc1)C(=O)N[C@@H](Cc1ccccc1)C(=O)N[C@@H](Cc1ccccc1)C(=O)O` [WYFF] (H-WYFF-OH): the State result in data set [1] (setting [5]) was “gel”. The “Concentration” value in data set [1] was found to be 30000 µM. In data set [1] (peptide concentration 30 mM), this compound registered a GELATION of 1. Moreover, the Morphology entry in data set [2] (line of the table gives 30 mM) is recorded as “fibre”.
